Laboratory results reported in US9365562B2, “1,3 substituted azetidine PDE10 inhibitors” (Merck Sharp & Dohme Corp., priority 2011, dated 2016).

Target: human PDE10A2 (Homo sapiens (Human), UniProt Q9Y233)
Test: PDE10 fluorescence polarization (IMAP FP) inhibition assay
Format: biochemical
Details: apparent inhibition constant, FAM-labeled cAMP substrate 50 nM, room temperature
Description: The activity of the compounds in accordance with the present invention as PDE10 inhibitors may be readily determined without undue experimentation using a fluorescence polarization (FP) methodology that is well known in the art (Huang, W., et al., J. Biomol Screen, 2002, 7: 215).
In a typical experiment the PDE10 inhibitory activity of the compounds of the present invention was determined in accordance with the following experimental method. PDE10A2 was amplified from human fetal brain cDNA (Clontech, Mountain View, Calif.) using a forward primer corresponding to nucleotides 56-77 of human PDE10A2 (Accession No. AF127480, Genbank Identifier 4894716), containing a Kozak consensus sequence, and a reverse primer corresponding to nucleotides 2406-2413 of human PDE10A2 (Accession No. AF127480, Genbank Identifier 4894716). Amplification with Easy-A polymerase (Stratagene, La Jolla, Calif.) was 95° C. for 2 minutes followed by thirty three cycles of 95° C. for 40 seconds, 55° C. for 30 seconds, and 72° C. for 2 minutes 48 seconds. Final extension was 72° C. for 7 minutes. The PCR product was TA cloned into pcDNA3.2-TOPO (Invitrogen, Carlsbad, Calif.) according to standard protocol. AD293 cells with 70-80% confluency were transiently transfected with human PDE10A2/pcDNA3.2-TOPO using Lipofectamine 2000 according to manufacturer specifications (Invitrogen, Carlsbad, Calif.). Cells were harvested 48 hours post-transfection and lysed by sonication (setting 3, 10×5 sec pulses) in a buffer containing 20 mM HEPES, 1 mM EDTA and protease inhibitor cocktail (Roche). Lysate was collected by centrifugation at 75,000×g for 20 minutes. Supernatant containing the cytoplasmic fraction was used for evaluation of PDE10A2 activity. The fluorescence polarization assay for cyclic nucleotide phosphodiesterases was performed using an IMAP® FP kit supplied by Molecular Devices, Sunnyvale, Calif. (product # R8139). IMAP® technology has been applied previously to phosphodiesterase assays (Huang, W., et al., J. Biomol Screen, 2002, 7: 215). Assays were performed at room temperature in 384-well microtiter plates with an incubation volume of 20.2 μL. Solutions of test compounds were prepared in DMSO and serially diluted with DMSO to yield 8 μL of each of 10 solutions differing by 3-fold in concentration, at 32 serial dilutions per plate. 100% inhibition is determined using a known PDE10 inhibitor, which can be any compound that is present at 5,000 times its Ki value in the assay described as follows, such as papaverine (see Siuciak, et al. Neuropharmacology (2006) 51:386-396; Becker, et al. Behav Brain Res (2008) 186(2):155-60; Threlfell, et al., J Pharmacol Exp Ther (2009) 328(3):785-795), 2-{4-[pyridin-4-yl-1-(2,2,2-trifluoroethyl)-1H-pyrazol-3-yl]phenoxymethyl}quinoline succinic acid or 2-[4-(1-methyl-4-pyridin-4-yl-1H-pyrazol-3-yl)-phenoxymethyl]quinoline succinic acid (see Schmidt, et al. J Pharmacol Exp Ther (2008) 325:681-690; Threlfell, et al., J Pharmacol Exp Ther (2009) 328(3): 785-795). 0% of inhibition is determined by using DMSO (1% final concentrations). A Labcyte Echo 555 (Labcyte, Sunnyvale, Calif.) is used to dispense […] from each well of the titration plate to the 384 well assay plate. A solution of enzyme (1/7000 dilution from aliquots; sufficient to produce 20% substrate conversion) and a separate solution of FAM-labeled cAMP PDE from Molecular Devices (product # R7506), at a final concentration of 50 nM are made in the assay buffer (10 mM Tris HCl, pH 7.2, 10 mM MgCl2, 0.05% NaN3 0.01% Tween-20, and 1 mM DTT). The enzyme is added to the assay plates by the addition of 10 μL of enzyme solution to each well, shaken to mix and incubated at room temperature for 60 minutes. The substrate is then added to the assay plates by the addition of 10 μL of substrate solution to each well, shaken to mix, and incubated at room temperature for 60 minutes. […]

human PDE10A2, sequence (Q9Y233 267-1055): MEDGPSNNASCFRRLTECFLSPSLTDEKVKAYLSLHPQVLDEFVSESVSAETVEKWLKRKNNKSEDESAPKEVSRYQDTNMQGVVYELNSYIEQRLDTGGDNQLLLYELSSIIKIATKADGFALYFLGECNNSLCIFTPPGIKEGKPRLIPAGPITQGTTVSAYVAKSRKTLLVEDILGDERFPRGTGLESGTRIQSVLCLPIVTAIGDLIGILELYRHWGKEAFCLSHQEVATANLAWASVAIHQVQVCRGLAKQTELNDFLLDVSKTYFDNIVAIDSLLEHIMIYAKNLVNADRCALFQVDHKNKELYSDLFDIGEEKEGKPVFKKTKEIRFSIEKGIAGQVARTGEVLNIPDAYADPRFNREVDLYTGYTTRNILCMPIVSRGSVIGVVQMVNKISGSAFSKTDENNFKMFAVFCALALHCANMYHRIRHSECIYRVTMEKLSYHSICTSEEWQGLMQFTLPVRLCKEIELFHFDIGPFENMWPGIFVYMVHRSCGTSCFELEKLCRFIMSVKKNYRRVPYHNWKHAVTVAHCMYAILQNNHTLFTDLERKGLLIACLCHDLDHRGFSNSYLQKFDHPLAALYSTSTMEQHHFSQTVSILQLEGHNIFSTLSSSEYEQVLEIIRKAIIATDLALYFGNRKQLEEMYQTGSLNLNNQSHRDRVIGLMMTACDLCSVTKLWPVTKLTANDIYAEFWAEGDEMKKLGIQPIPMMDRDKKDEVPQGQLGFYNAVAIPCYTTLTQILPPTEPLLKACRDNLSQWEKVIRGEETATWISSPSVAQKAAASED

| SMILES | Ki |
| --- | --- |
| Cc1nc(N2CC(c3nc4ccccc4n3C)C2)cc(-n2nc(C)nc2-c2cccnc2)n1 [Example 52, 1-methyl-2-(1-(2-methyl-6-(3-methyl-5-(pyridin-3-yl)-1H-1,2,4-triazol-1-yl)pyrimidin-4-yl)azetidin-3-yl)-1H-benzo[d]imidazole] | 7.5 nM |
| Cc1cnc(-c2nc(C)nn2-c2cc(N3CC(c4nc5ccccc5n4C)C3)nc(C)n2)cn1 [Example 53, 1-methyl-2-(1-(2-methyl-6-(3-methyl-5-(5-methylpyrazin-2-yl)-1H-1,2,4-triazol-1-yl)pyrimidin-4-yl)azetidin-3-yl)-1H-benzo[d]imidazole] | 26 nM |
| Cc1nc(N2CC(c3nc4ccccc4n3C)C2)cc(-n2nc(C)nc2-c2ccc(C#N)cc2)n1 [Example 54, 4-(3-methyl-1-(2-methyl-6-(3-(1-methyl-1H-benzo[d]imidazol-2-yl)azetidin-1-yl)pyrimidin-4-yl)-1H-1,2,4-triazol-5-yl)benzonitrile] | 16 nM |
| Cc1ccc(-c2nc(C)nn2-c2cc(N3CC(c4nc5ccccc5n4C)C3)nc(C)n2)cn1 [Example 55, 1-methyl-2-(1-(2-methyl-6-(3-methyl-5-(6-methylpyridin-3-yl)-1H-1,2,4-triazol-1-yl)pyrimidin-4-yl)azetidin-3-yl)-1H-benzo[d]imidazole] | 10 nM |
| Cc1nc(N2CC(c3nc4ccccc4n3C)C2)cc(-n2nc(C)nc2-c2c(F)cccc2F)n1 [Example 56, 2-(1-(6-(5-(2,6-difluorophenyl)-3-methyl-1H-1,2,4-triazol-1-yl)-2-methylpyrimidin-4-yl)azetidin-3-yl)-1-methyl-1H-benzo[d]imidazole] | 0.24 nM |
| Cc1nc(N2CC(c3nc4ccccc4n3C)C2)cc(-n2nc(C)nc2Cc2cc(F)ccc2F)n1 [Example 57, 2-(1-(6-(5-(2,5-difluorobenzyl)-3-methyl-1H-1,2,4-triazol-1-yl)-2-methylpyrimidin-4-yl)azetidin-3-yl)-1-methyl-1H-benzo[d]imidazole] | 0.065 nM |
| Cc1nc(N2CC(c3nc4ccccc4n3C)C2)cc(-n2nc(C)nc2Cc2ccc(F)cc2)n1 [Example 58, 2-(1-(6-(5-(4-fluorobenzyl)-3-methyl-1H-1,2,4-triazol-1-yl)-2-methylpyrimidin-4-yl)azetidin-3-yl)-1-methyl-1H-benzo[d]imidazole] | 0.12 nM |
| COCc1nc(C)nn1-c1cc(N2CC(c3nc4ccccc4n3C)C2)nc(C)n1 [Example 59, 2-(1-{6-[5-(methoxymethyl)-3-methyl-1H-1,2,4-triazol-1-yl]-2-methylpyrimidin-4-yl}azetidin-3-yl)-1-methyl-1H-benzimidazole] | 1.5 nM |
| Cc1nc(C)n(-c2cc(N3CC(c4nc5ccccc5n4C)C3)nc(C(F)(F)F)n2)n1 [Example 60, 2-{1-[6-(3,5-dimethyl-1H-1,2,4-triazol-1-yl)-2-(trifluoromethyl)pyrimidin-4-yl]azetidin-3-yl}-1-methyl-1H-benzimidazole] | 1.1 nM |
| Cc1nc(C)n(-c2cc(N3CC(c4nc5ccccc5n4C)C3)nc(C3CC3)n2)n1 [Example 61, 2-{1-[2-cyclopropyl-6-(3,5-dimethyl-1H-1,2,4-triazol-1-yl)pyrimidin-4-yl]azetidin-3-yl}-1-methyl-1H-benzimidazole] | 0.46 nM |
| COc1nc(N2CC(c3nc4ccccc4n3C)C2)cc(-n2nc(C)nc2C)n1 [Example 62, 2-{1-[6-(3,5-dimethyl-1H-1,2,4-triazol-1-yl)-2-methoxypyrimidin-4-yl]azetidin-3-yl}-1-methyl-1H-benzimidazole] | 0.76 nM |
| COc1nc(N2CC(c3nc4ccccc4n3C)C2)cc(-n2nc(C)nc2C2CC2)n1 [Example 63, 2-(1-(6-(5-cyclopropyl-3-methyl-1H-1,2,4-triazol-1-yl)-2-methoxypyrimidin-4-yl)azetidin-3-yl)-1-methyl-1H-benzo[d]imidazole] | 1.8 nM |
| CCc1nc(C)nn1-c1cc(N2CC(c3nc4ccccc4n3C)C2)nc(OC)n1 [Example 64, 2-(1-(6-(5-ethyl-3-methyl-1H-1,2,4-triazol-1-yl)-2-methoxypyrimidin-4-yl)azetidin-3-yl)-1-methyl-1H-benzo[d]imidazole] | 0.4 nM |
| COCc1nc(C)nn1-c1cc(N2CC(c3nc4ccccc4n3C)C2)nc(C2CC2)n1 [Example 65, 2-(1-(2-cyclopropyl-6-(5-(methoxymethyl)-3-methyl-1H-1,2,4-triazol-1-yl)pyrimidin-4-yl)azetidin-3-yl)-1-methyl-1H-benzo[d]imidazole] | 2.5 nM |
| COCc1nc(C)nn1-c1cc(N2CC(c3nc4ccccc4n3C)C2)nc(C(F)(F)F)n1 [Example 66, 2-(1-(6-(5-(methoxymethyl)-3-methyl-1H-1,2,4-triazol-1-yl)-2-(trifluoromethyl)pyrimidin-4-yl)azetidin-3-yl)-1-methyl-1H-benzo[d]imidazole] | 0.94 nM |
| CCc1nc(C)nn1-c1cc(N2CC(c3nc4ccccc4n3C)C2)nc(C(F)(F)F)n1 [Example 67, 2-(1-(6-(5-ethyl-3-methyl-1H-1,2,4-triazol-1-yl)-2-(trifluoromethyl)pyrimidin-4-yl)azetidin-3-yl)-1-methyl-1H-benzo[d]imidazole] | 0.28 nM |
| Cc1nc(C2CC2)n(-c2cc(N3CC(c4nc5ccccc5n4C)C3)nc(C(F)(F)F)n2)n1 [Example 68, 2-(1-(6-(5-cyclopropyl-3-methyl-1H-1,2,4-triazol-1-yl)-2-(trifluoromethyl)pyrimidin-4-yl)azetidin-3-yl)-1-methyl-1H-benzo[d]imidazole] | 1.4 nM |
| Cc1nc(C2CCOCC2)n(-c2cc(N3CC(c4nc5ccccc5n4C)C3)nc(C(F)(F)F)n2)n1 [Example 69, 1-methyl-2-(1-(6-(3-methyl-5-(tetrahydro-2H-pyran-4-yl)-1H-1,2,4-triazol-1-yl)-2-(trifluoromethyl)pyrimidin-4-yl)azetidin-3-yl)-1H-benzo[d]imidazole] | 1.8 nM |
| Cc1nc(C)n(-c2cc(N3CC(c4nc5ccccc5n4C)C3)nc(OC(C)C)n2)n1 [Example 70, 2-{1-[6-(3,5-dimethyl-1H-1,2,4-triazol-1-yl)-2-isopropoxypyimidin-4-yl]azetidin-3-yl}-1-methyl-1H-benzimidazole] | 0.38 nM |
| Cc1nc(C)n(-c2cc(N3CC(c4nc5ccccc5n4C)C3)nc(OCc3ccno3)n2)n1 [Example 71, 5-(((4-(3,5-dimethyl-1H-1,2,4-triazol-1-yl)-6-(3-(1-methyl-1H-benzo[d]imidazol-2-yl)azetidin-1-yl)pyrimidin-2-yl)oxy)methyl)isoxazole] | 0.4 nM |
| Cc1nc(C)n(-c2cc(N3CC(c4nc5ccccc5n4C)C3)nc(OCc3nccs3)n2)n1 [Example 72, 2-(((4-(3,5-dimethyl-1H-1,2,4-triazol-1-yl)-6-(3-(1-methyl-1H-benzo[d]imidazol-2-yl)azetidin-1-yl)pyrimidin-2-yl)oxy)methyl)thiazole] | 0.28 nM |
| Cc1nc(C)n(-c2cc(N3CC(c4nc5ccccc5n4C)C3)nc(OCc3ccnn3C)n2)n1 [Example 73, 2-(1-(6-(3,5-dimethyl-1H-1,2,4-triazol-1-yl)-2-((1-methyl-1H-pyrazol-5-yl)methoxy)pyrimidin-4-yl)azetidin-3-yl)-1-methyl-1H-benzo[d]imidazole] | 0.13 nM |
| Cc1nc(C)n(-c2cc(N3CC(c4nc5ccccc5n4C)C3)nc(OCc3ccon3)n2)n1 [Example 74, 3-(((4-(3,5-dimethyl-1H-1,2,4-triazol-1-yl)-6-(3-(1-methyl-1H-benzo[d]imidazol-2-yl)azetidin-1-yl)pyrimidin-2-yl)oxy)methyl)isoxazole] | 0.49 nM |
